Oligonucleotides are given in HELM: sugar(base)linkage, 5' to 3'; d 2'-deoxyribose, r ribose, m 2'-O-methylribose, p phosphate. ss, as = sense and antisense strand

The values that follow come from the OligoGym collection.
Note: test concentration or dose not given here.

The series has as its target UBE2D3. The series can be described thus: reporter assay of Huesken 2005. Particulars: siRNA. (In general: Reporter assays use an easily measured gene product as a stand-in for the process of interest.)
“RNA1{r(C)p.r(U)p.r(U)p.r(U)p.r(U)p.r(A)p.r(U)p.r(C)p.r(C)p.r(A)p.r(U)p.r(U)p.r(U)p.r(G)p.r(U)p.r(U)p.r(C)p.r(A)p.r(C)p.d(T)p.d(T)}|RNA2{r(G)p.r(U)p.r(G)p.r(A)p.r(A)p.r(C)p.r(A)p.r(A)p.r(A)p.r(U)p.r(G)p.r(G)p.r(A)p.r(U)p.r(A)p.r(A)p.r(A)p.r(A)p.r(G)p.d(A)p.d(A)}$$$RNA1{StrandType:ss}|RNA2{StrandType:as}$” yielded a normalised inhibition (eCFP-eYFP dual reporter) of 27%.

On to “RNA1{r(U)p.r(C)p.r(A)p.r(C)p.r(U)p.r(G)p.r(C)p.r(U)p.r(A)p.r(U)p.r(G)p.r(U)p.r(G)p.r(A)p.r(U)p.r(C)p.r(C)p.r(A)p.r(A)p.d(T)p.d(T)}|RNA2{r(U)p.r(U)p.r(G)p.r(G)p.r(A)p.r(U)p.r(C)p.r(A)p.r(C)p.r(A)p.r(U)p.r(A)p.r(G)p.r(C)p.r(A)p.r(G)p.r(U)p.r(G)p.r(A)p.d(A)p.d(C)}$$$RNA1{StrandType:ss}|RNA2{StrandType:as}$”, for which the normalised inhibition (eCFP-eYFP dual reporter) was 95.2%.

With “RNA1{r(C)p.r(A)p.r(A)p.r(U)p.r(U)p.r(U)p.r(C)p.r(U)p.r(A)p.r(A)p.r(A)p.r(G)p.r(U)p.r(U)p.r(C)p.r(U)p.r(U)p.r(U)p.r(U)p.d(T)p.d(T)}|RNA2{r(A)p.r(A)p.r(A)p.r(A)p.r(G)p.r(A)p.r(A)p.r(C)p.r(U)p.r(U)p.r(U)p.r(A)p.r(G)p.r(A)p.r(A)p.r(A)p.r(U)p.r(U)p.r(G)p.d(T)p.d(T)}$$$RNA1{StrandType:ss}|RNA2{StrandType:as}$”, the normalised inhibition (eCFP-eYFP dual reporter) worked out at 80.6%.

Turning to “RNA1{r(U)p.r(G)p.r(A)p.r(C)p.r(A)p.r(A)p.r(U)p.r(U)p.r(C)p.r(A)p.r(U)p.r(U)p.r(U)p.r(U)p.r(C)p.r(C)p.r(U)p.r(A)p.r(C)p.d(T)p.d(T)}|RNA2{r(G)p.r(U)p.r(A)p.r(G)p.r(G)p.r(A)p.r(A)p.r(A)p.r(A)p.r(U)p.r(G)p.r(A)p.r(A)p.r(U)p.r(U)p.r(G)p.r(U)p.r(C)p.r(A)p.d(A)p.d(A)}$$$RNA1{StrandType:ss}|RNA2{StrandType:as}$”, the normalised inhibition (eCFP-eYFP dual reporter) worked out at 55.4%.

“RNA1{r(C)p.r(A)p.r(A)p.r(G)p.r(A)p.r(A)p.r(U)p.r(U)p.r(U)p.r(A)p.r(U)p.r(C)p.r(A)p.r(U)p.r(C)p.r(C)p.r(A)p.r(A)p.r(A)p.d(T)p.d(T)}|RNA2{r(U)p.r(U)p.r(U)p.r(G)p.r(G)p.r(A)p.r(U)p.r(G)p.r(A)p.r(U)p.r(A)p.r(A)p.r(A)p.r(U)p.r(U)p.r(C)p.r(U)p.r(U)p.r(G)p.d(T)p.d(T)}$$$RNA1{StrandType:ss}|RNA2{StrandType:as}$” registered a normalised inhibition (eCFP-eYFP dual reporter) of 93.1%.

The substance “RNA1{r(U)p.r(C)p.r(U)p.r(G)p.r(C)p.r(A)p.r(G)p.r(G)p.r(U)p.r(C)p.r(C)p.r(A)p.r(G)p.r(U)p.r(U)p.r(G)p.r(G)p.r(G)p.r(G)p.d(T)p.d(T)}|RNA2{r(C)p.r(C)p.r(C)p.r(C)p.r(A)p.r(A)p.r(C)p.r(U)p.r(G)p.r(G)p.r(A)p.r(C)p.r(C)p.r(U)p.r(G)p.r(C)p.r(A)p.r(G)p.r(A)p.d(A)p.d(C)}$$$RNA1{StrandType:ss}|RNA2{StrandType:as}$” gave a normalised inhibition (eCFP-eYFP dual reporter) of 32.9%.

“RNA1{r(U)p.r(U)p.r(C)p.r(A)p.r(U)p.r(U)p.r(U)p.r(U)p.r(C)p.r(C)p.r(U)p.r(A)p.r(C)p.r(A)p.r(G)p.r(A)p.r(C)p.r(U)p.r(A)p.d(T)p.d(T)}|RNA2{r(U)p.r(A)p.r(G)p.r(U)p.r(C)p.r(U)p.r(G)p.r(U)p.r(A)p.r(G)p.r(G)p.r(A)p.r(A)p.r(A)p.r(A)p.r(U)p.r(G)p.r(A)p.r(A)p.d(T)p.d(T)}$$$RNA1{StrandType:ss}|RNA2{StrandType:as}$” came in with a normalised inhibition (eCFP-eYFP dual reporter) of 85%.

“RNA1{r(G)p.r(U)p.r(C)p.r(C)p.r(A)p.r(G)p.r(U)p.r(U)p.r(G)p.r(G)p.r(G)p.r(G)p.r(A)p.r(U)p.r(G)p.r(A)p.r(U)p.r(A)p.r(U)p.d(T)p.d(T)}|RNA2{r(A)p.r(U)p.r(A)p.r(U)p.r(C)p.r(A)p.r(U)p.r(C)p.r(C)p.r(C)p.r(C)p.r(A)p.r(A)p.r(C)p.r(U)p.r(G)p.r(G)p.r(A)p.r(C)p.d(C)p.d(T)}$$$RNA1{StrandType:ss}|RNA2{StrandType:as}$”: the normalised inhibition (eCFP-eYFP dual reporter) worked out at 88.3%.

The substance “RNA1{r(U)p.r(A)p.r(U)p.r(G)p.r(U)p.r(U)p.r(U)p.r(C)p.r(A)p.r(U)p.r(U)p.r(G)p.r(G)p.r(C)p.r(A)p.r(A)p.r(G)p.r(C)p.r(C)p.d(T)p.d(T)}|RNA2{r(G)p.r(G)p.r(C)p.r(U)p.r(U)p.r(G)p.r(C)p.r(C)p.r(A)p.r(A)p.r(U)p.r(G)p.r(A)p.r(A)p.r(A)p.r(C)p.r(A)p.r(U)p.r(A)p.d(T)p.d(C)}$$$RNA1{StrandType:ss}|RNA2{StrandType:as}$” registered a normalised inhibition (eCFP-eYFP dual reporter) of 44.7%.

“RNA1{r(U)p.r(A)p.r(A)p.r(G)p.r(A)p.r(U)p.r(C)p.r(A)p.r(C)p.r(A)p.r(G)p.r(U)p.r(G)p.r(G)p.r(U)p.r(C)p.r(G)p.r(C)p.r(C)p.d(T)p.d(T)}|RNA2{r(G)p.r(G)p.r(C)p.r(G)p.r(A)p.r(C)p.r(C)p.r(A)p.r(C)p.r(U)p.r(G)p.r(U)p.r(G)p.r(A)p.r(U)p.r(C)p.r(U)p.r(U)p.r(A)p.d(G)p.d(A)}$$$RNA1{StrandType:ss}|RNA2{StrandType:as}$” had a normalised inhibition (eCFP-eYFP dual reporter) of 55.6%.

As to “RNA1{r(U)p.r(C)p.r(U)p.r(A)p.r(A)p.r(A)p.r(G)p.r(U)p.r(U)p.r(C)p.r(U)p.r(U)p.r(U)p.r(U)p.r(A)p.r(U)p.r(C)p.r(C)p.r(A)p.d(T)p.d(T)}|RNA2{r(U)p.r(G)p.r(G)p.r(A)p.r(U)p.r(A)p.r(A)p.r(A)p.r(A)p.r(G)p.r(A)p.r(A)p.r(C)p.r(U)p.r(U)p.r(U)p.r(A)p.r(G)p.r(A)p.d(A)p.d(A)}$$$RNA1{StrandType:ss}|RNA2{StrandType:as}$”, the normalised inhibition (eCFP-eYFP dual reporter) came to 64.2%.

As to “RNA1{r(A)p.r(A)p.r(U)p.r(U)p.r(C)p.r(A)p.r(U)p.r(U)p.r(U)p.r(U)p.r(C)p.r(C)p.r(U)p.r(A)p.r(C)p.r(A)p.r(G)p.r(A)p.r(C)p.d(T)p.d(T)}|RNA2{r(G)p.r(U)p.r(C)p.r(U)p.r(G)p.r(U)p.r(A)p.r(G)p.r(G)p.r(A)p.r(A)p.r(A)p.r(A)p.r(U)p.r(G)p.r(A)p.r(A)p.r(U)p.r(U)p.d(G)p.d(T)}$$$RNA1{StrandType:ss}|RNA2{StrandType:as}$”, the normalised inhibition (eCFP-eYFP dual reporter) came out at 62.3%.

The substance “RNA1{r(U)p.r(A)p.r(G)p.r(U)p.r(G)p.r(C)p.r(C)p.r(A)p.r(G)p.r(A)p.r(G)p.r(A)p.r(U)p.r(U)p.r(G)p.r(C)p.r(A)p.r(C)p.r(G)p.d(T)p.d(T)}|RNA2{r(C)p.r(G)p.r(U)p.r(G)p.r(C)p.r(A)p.r(A)p.r(U)p.r(C)p.r(U)p.r(C)p.r(U)p.r(G)p.r(G)p.r(C)p.r(A)p.r(C)p.r(U)p.r(A)p.d(G)p.d(G)}$$$RNA1{StrandType:ss}|RNA2{StrandType:as}$” registered a normalised inhibition (eCFP-eYFP dual reporter) of 62.4%.

The substance “RNA1{r(U)p.r(U)p.r(C)p.r(A)p.r(A)p.r(A)p.r(C)p.r(C)p.r(A)p.r(C)p.r(C)p.r(U)p.r(A)p.r(A)p.r(G)p.r(G)p.r(U)p.r(U)p.r(G)p.d(T)p.d(T)}|RNA2{r(C)p.r(A)p.r(A)p.r(C)p.r(C)p.r(U)p.r(U)p.r(A)p.r(G)p.r(G)p.r(U)p.r(G)p.r(G)p.r(U)p.r(U)p.r(U)p.r(G)p.r(A)p.r(A)p.d(G)p.d(G)}$$$RNA1{StrandType:ss}|RNA2{StrandType:as}$” showed a normalised inhibition (eCFP-eYFP dual reporter) of 64.4%.
